Source: patent US10414811B2, “Protease-resistant lipidated GLP-1 analogs” (MEDIMMUNE LIMITED, priority 2015, dated 2019)
Read-outs that look alike come from different tables or passages of the source.

Legend:
Type in all cases: cell-based
[1] = molecular target: T1, human GLP-1 receptor (GLP-1R) (Homo sapiens, UniProt P43220); experiment: cAMP assay, human GLP-1R cells
T1 construct: expressed in transfected cells
Method in brief: (§1)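 Peptide-stimulated cAMP measured by two-step HTRF after a 30 min room-temperature incubation with receptor-expressing cells (hGLP-1R, hGIPR at 1×10^5 cells/ml; hGCGR at 2×10^5 cells/ml). Duplicate dilutions; EC50 from 4-parameter logistic fit of % Delta F.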

[2] = molecular target: T2, human glucagon receptor (GCGR) (Homo sapiens, UniProt P47871); experiment: cAMP assay, human GCGR cells
T2 construct: expressed in transfected cells
Method in brief: as §1

[3] = molecular target: T3, human glucose-dependent insulinotropic peptide receptor (GIPR) (Homo sapiens, UniProt P48546); experiment: cAMP assay, human GIPR cells
T3 construct: expressed in transfected cells
T3 sequence (P48546 22-466): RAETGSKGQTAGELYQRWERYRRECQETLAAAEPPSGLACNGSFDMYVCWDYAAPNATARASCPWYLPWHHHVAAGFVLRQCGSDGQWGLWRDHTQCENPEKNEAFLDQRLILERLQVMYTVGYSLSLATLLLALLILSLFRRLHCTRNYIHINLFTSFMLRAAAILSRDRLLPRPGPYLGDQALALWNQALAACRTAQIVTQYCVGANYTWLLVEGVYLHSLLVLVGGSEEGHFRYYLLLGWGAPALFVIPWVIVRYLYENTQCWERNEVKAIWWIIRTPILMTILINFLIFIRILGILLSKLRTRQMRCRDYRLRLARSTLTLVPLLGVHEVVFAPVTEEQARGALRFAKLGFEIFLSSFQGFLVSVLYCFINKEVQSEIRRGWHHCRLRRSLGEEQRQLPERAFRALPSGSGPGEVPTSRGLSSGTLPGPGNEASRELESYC
Method in brief: as §1

GLP-1R (INS1e assay) = molecular target: T4, GLP-1R (INS1e assay) (Rattus norvegicus, UniProt P32301); experiment: INS1e assay, cAMP activity at GLP-1R; details: mono-lipidated peptides
T4 construct: endogenous in cells; host or cells: INS-1E cells
T4 sequence (P32301 22-463): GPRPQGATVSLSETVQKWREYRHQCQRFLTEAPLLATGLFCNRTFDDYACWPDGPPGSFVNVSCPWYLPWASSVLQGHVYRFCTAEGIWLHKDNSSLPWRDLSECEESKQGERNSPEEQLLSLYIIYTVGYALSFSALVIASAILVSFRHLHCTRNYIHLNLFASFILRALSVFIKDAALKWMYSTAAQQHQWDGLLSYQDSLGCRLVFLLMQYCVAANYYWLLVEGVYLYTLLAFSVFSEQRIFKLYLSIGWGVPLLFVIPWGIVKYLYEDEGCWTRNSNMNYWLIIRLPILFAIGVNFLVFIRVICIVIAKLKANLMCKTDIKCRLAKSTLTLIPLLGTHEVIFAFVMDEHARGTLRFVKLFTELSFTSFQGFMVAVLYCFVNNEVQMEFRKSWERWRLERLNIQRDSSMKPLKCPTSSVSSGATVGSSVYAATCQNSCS
Method in brief: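 It pairs cAMP-d2 acceptor with anti-cAMP cryptate donor, both prepared 1/20 in conjugate/lysis buffer, applied as a two-step protocol.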

[4] = cAMP assay, first determination (n1), read-out: Primary assay EC50 GLP-1R n1
[5] = cAMP assay, second determination (n2), read-out: Primary assay EC50 GLP-1R n2
[6] = mean of n1 and n2, read-out: Mean pM GLP-1R
[7] = cAMP assay, first determination (n1), read-out: Primary assay EC50 Gluc-R (n1)
[8] = cAMP assay, second determination (n2), read-out: Primary assay EC50 Gluc-R (n2)
[9] = cAMP assay, first determination (n1), read-out: Primary assay EC50 GIP-R (n1)
[10] = cAMP assay, second determination (n2), read-out: Primary assay EC50 GIP-R (n2)
[11] = mean of n1 and n2, read-out: INS1e assay EC50 Mean pM GLP-1R
[12] = replicate n1, read-out: INS1e assay EC50 GLP-1R n1
[13] = replicate n2, read-out: INS1e assay EC50 GLP-1R n2

T2 sequence (P47871 26-477): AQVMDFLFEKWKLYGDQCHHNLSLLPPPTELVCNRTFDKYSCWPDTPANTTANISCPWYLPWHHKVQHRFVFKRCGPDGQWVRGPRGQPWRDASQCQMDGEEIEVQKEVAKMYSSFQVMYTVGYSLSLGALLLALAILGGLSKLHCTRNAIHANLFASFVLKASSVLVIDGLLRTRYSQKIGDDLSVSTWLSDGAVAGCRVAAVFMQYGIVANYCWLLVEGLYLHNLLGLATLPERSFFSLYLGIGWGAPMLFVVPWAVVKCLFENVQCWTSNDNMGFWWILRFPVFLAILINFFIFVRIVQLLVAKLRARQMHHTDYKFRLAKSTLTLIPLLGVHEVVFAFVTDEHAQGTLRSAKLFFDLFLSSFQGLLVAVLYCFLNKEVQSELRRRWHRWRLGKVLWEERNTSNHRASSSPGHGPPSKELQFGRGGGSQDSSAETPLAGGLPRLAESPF
T1 sequence (P43220 24-463): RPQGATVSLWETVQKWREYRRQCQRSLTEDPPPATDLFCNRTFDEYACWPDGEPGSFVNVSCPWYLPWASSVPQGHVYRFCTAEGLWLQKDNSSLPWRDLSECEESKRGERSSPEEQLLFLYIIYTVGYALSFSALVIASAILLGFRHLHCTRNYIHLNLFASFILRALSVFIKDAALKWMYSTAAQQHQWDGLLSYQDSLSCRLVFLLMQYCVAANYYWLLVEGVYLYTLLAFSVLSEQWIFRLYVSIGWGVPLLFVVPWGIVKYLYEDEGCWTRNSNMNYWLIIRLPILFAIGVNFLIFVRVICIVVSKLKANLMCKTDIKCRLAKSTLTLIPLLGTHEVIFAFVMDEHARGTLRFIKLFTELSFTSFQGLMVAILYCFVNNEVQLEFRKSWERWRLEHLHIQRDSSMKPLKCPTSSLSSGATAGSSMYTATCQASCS

Row | SMILES | EC50 [1, 4] | EC50 [1, 5] | EC50 [1, 6] | EC50 [2, 7] | EC50 [2, 8] | EC50 [3, 9] | EC50 [3, 10] | EC50 (GLP-1R (INS1e assay); [11]) | EC50 (GLP-1R (INS1e assay); [12]) | EC50 (GLP-1R (INS1e assay); [13]) | EC50 ([1]; first run (n1), cAMP activity, read-out: Primary assay EC50 GLP-1R n1) | EC50 ([1]; second run (n2), cAMP activity, read-out: Primary assay EC50 GLP-1R n2) | EC50 ([2]; first run (n1), cAMP activity of substituted and mono-lipidated peptides, read-out: Primary assay EC50 Gluc-R) | EC50 ([2]; second run (n2), cAMP activity, read-out: Primary assay EC50 Gluc-R) | EC50 ([3]; first run (n1), cAMP activity, read-out: Primary assay EC50 GIP-R) | EC50 ([3]; second run (n2), cAMP activity, read-out: Primary assay EC50 GIP-R)
1 | CCCCCCCCCCCC(=O)NCCCCCC(=O)NCCCCCC(=O)NCCCC[C@H](NC(=O)[C@@H](NC(=O)[C@@H](NC(=O)[C@](C)(Cc1ccccc1)NC(=O)[C@H](C)NC(=O)[C@@H](NC(=O)[C@](C)(Cc1ccccc1)NC(=O)[C@H](CCC(=O)O)NC(=O)[C@](C)(CCCCN)NC(=O)[C@H](C)NC(=O)[C@H](C)NC(=O)[C@H](CCC(=O)O)NC(=O)CNC(=O)[C@H](CCC(=O)O)NC(=O)[C@H](CC(C)C)NC(=O)[C@](C)(Cc1ccccc1)NC(=O)[C@H](CO)NC(=O)[C@](C)(CO)NC(=O)[C@@H](NC(=O)[C@H](CC(=O)O)NC(=O)[C@H](CO)NC(=O)[C@@H](NC(=O)[C@](C)(Cc1ccccc1)NC(=O)[C@H](CO)NC(=O)CNC(=O)[C@H](CCC(=O)O)NC(=O)C(C)(C)NC(=O)[C@@H](N)Cc1c[nH]cn1)[C@@H](C)O)C(C)C)[C@@H](C)CC)C(C)C)C(C)C)C(=O)NCC(=O)NCC(N)=O [compound 168] | 5.1 pM | 2.6 pM | 3.8 pM | ≥ 28000 pM | ≥ 28000 pM | ≥ 28000 pM | ≥ 28000 pM | 326 pM | 189 pM | 462 pM |  |  |  |  |  | 
2 | CCCCCCCCCCCC(=O)NCCCCCC(=O)NCCCCCC(=O)NCCCCCC(=O)NCCCC[C@H](NC(=O)[C@@H](NC(=O)[C@@H](NC(=O)[C@](C)(Cc1ccccc1)NC(=O)[C@H](C)NC(=O)[C@@H](NC(=O)[C@](C)(Cc1ccccc1)NC(=O)[C@H](CCC(=O)O)NC(=O)[C@](C)(CCCCN)NC(=O)[C@H](C)NC(=O)[C@H](C)NC(=O)[C@H](CCC(=O)O)NC(=O)CNC(=O)[C@H](CCC(=O)O)NC(=O)[C@H](CC(C)C)NC(=O)[C@](C)(Cc1ccccc1)NC(=O)[C@H](CO)NC(=O)[C@](C)(CO)NC(=O)[C@@H](NC(=O)[C@H](CC(=O)O)NC(=O)[C@H](CO)NC(=O)[C@@H](NC(=O)[C@](C)(Cc1ccccc1)NC(=O)[C@H](CO)NC(=O)CNC(=O)[C@H](CCC(=O)O)NC(=O)C(C)(C)NC(=O)[C@@H](N)Cc1c[nH]cn1)[C@@H](C)O)C(C)C)[C@@H](C)CC)C(C)C)C(C)C)C(=O)NCC(=O)NCC(N)=O [compound 169] | 3.4 pM | 1.7 pM | 2.6 pM | ≥ 27000 pM | ≥ 27000 pM | ≥ 27000 pM | ≥ 27000 pM | 181 pM | 93.1 pM | 269 pM |  |  |  |  |  | 
3 | CCCCCCCCCCCC(=O)NCCOCCOCC(=O)NCCOCCOCC(=O)NCCCC[C@H](NC(=O)[C@@H](NC(=O)[C@@H](NC(=O)[C@](C)(Cc1ccccc1)NC(=O)[C@H](C)NC(=O)[C@@H](NC(=O)[C@](C)(Cc1ccccc1)NC(=O)[C@H](CCC(=O)O)NC(=O)[C@](C)(CCCCN)NC(=O)[C@H](C)NC(=O)[C@H](C)NC(=O)[C@H](CCC(=O)O)NC(=O)CNC(=O)[C@H](CCC(=O)O)NC(=O)[C@H](CC(C)C)NC(=O)[C@](C)(Cc1ccccc1)NC(=O)[C@H](CO)NC(=O)[C@](C)(CO)NC(=O)[C@@H](NC(=O)[C@H](CC(=O)O)NC(=O)[C@H](CO)NC(=O)[C@@H](NC(=O)[C@](C)(Cc1ccccc1)NC(=O)[C@H](CO)NC(=O)CNC(=O)[C@H](CCC(=O)O)NC(=O)C(C)(C)NC(=O)[C@@H](N)Cc1c[nH]cn1)[C@@H](C)O)C(C)C)[C@@H](C)CC)C(C)C)C(C)C)C(=O)NCC(=O)NCC(N)=O [compound 171] | 2.5 pM | 1.2 pM | 1.9 pM | ≥ 27000 pM | ≥ 27000 pM | ≥ 27000 pM | ≥ 27000 pM | 128 pM | 81.7 pM | 175 pM |  |  |  |  |  | 
4 | CCCCCCCCCCCC(=O)NCCOCCOCC(=O)NCCOCCOCC(=O)NCCOCCOCC(=O)NCCCC[C@H](NC(=O)[C@@H](NC(=O)[C@@H](NC(=O)[C@](C)(Cc1ccccc1)NC(=O)[C@H](C)NC(=O)[C@@H](NC(=O)[C@](C)(Cc1ccccc1)NC(=O)[C@H](CCC(=O)O)NC(=O)[C@](C)(CCCCN)NC(=O)[C@H](C)NC(=O)[C@H](C)NC(=O)[C@H](CCC(=O)O)NC(=O)CNC(=O)[C@H](CCC(=O)O)NC(=O)[C@H](CC(C)C)NC(=O)[C@](C)(Cc1ccccc1)NC(=O)[C@H](CO)NC(=O)[C@](C)(CO)NC(=O)[C@@H](NC(=O)[C@H](CC(=O)O)NC(=O)[C@H](CO)NC(=O)[C@@H](NC(=O)[C@](C)(Cc1ccccc1)NC(=O)[C@H](CO)NC(=O)CNC(=O)[C@H](CCC(=O)O)NC(=O)C(C)(C)NC(=O)[C@@H](N)Cc1c[nH]cn1)[C@@H](C)O)C(C)C)[C@@H](C)CC)C(C)C)C(C)C)C(=O)NCC(=O)NCC(N)=O [compound 172] | 1.5 pM |  | 1.1 pM | ≥ 26000 pM | ≥ 26000 pM | ≥ 26000 pM | ≥ 26000 pM | 33.8 pM | 39.6 pM | 28 pM |  |  |  |  |  | 
5 | CCCCCCCCCCCCCCCCCC(=O)N[C@@H](CCC(=O)N[C@@H](CCC(=O)N[C@@H](CCC(=O)NCCCC[C@H](NC(=O)[C@@H](NC(=O)[C@@H](NC(=O)[C@](C)(Cc1ccccc1)NC(=O)[C@H](C)NC(=O)[C@@H](NC(=O)[C@](C)(Cc1ccccc1)NC(=O)[C@H](CCC(=O)O)NC(=O)[C@](C)(CCCCN)NC(=O)[C@H](C)NC(=O)[C@H](C)NC(=O)[C@H](CCC(=O)O)NC(=O)CNC(=O)[C@H](CCC(=O)O)NC(=O)[C@H](CC(C)C)NC(=O)[C@](C)(Cc1ccccc1)NC(=O)[C@H](CO)NC(=O)[C@](C)(CO)NC(=O)[C@@H](NC(=O)[C@H](CC(=O)O)NC(=O)[C@H](CO)NC(=O)[C@@H](NC(=O)[C@](C)(Cc1ccccc1)NC(=O)[C@H](CO)NC(=O)CNC(=O)[C@H](CCC(=O)O)NC(=O)C(C)(C)NC(=O)[C@@H](N)Cc1c[nH]cn1)[C@@H](C)O)C(C)C)[C@@H](C)CC)C(C)C)C(C)C)C(=O)NCC(=O)NCC(N)=O)C(=O)O)C(=O)O)C(=O)O [compound 184] | 47 pM | 12 pM | 29.5 pM | ≥ 26000 pM | ≥ 26000 pM | ≥ 26000 pM | ≥ 26000 pM | 426 pM | 351 pM | 501 pM |  |  |  |  |  | 
6 | CCCCCCCCCCCCCCCCCC(=O)NCCOCCOCC(=O)NCCOCCOCC(=O)NCCCC[C@H](NC(=O)[C@@H](NC(=O)[C@@H](NC(=O)[C@](C)(Cc1ccccc1)NC(=O)[C@H](C)NC(=O)[C@@H](NC(=O)[C@](C)(Cc1ccccc1)NC(=O)[C@H](CCC(=O)O)NC(=O)[C@](C)(CCCCN)NC(=O)[C@H](C)NC(=O)[C@H](C)NC(=O)[C@H](CCC(=O)O)NC(=O)CNC(=O)[C@H](CCC(=O)O)NC(=O)[C@H](CC(C)C)NC(=O)[C@](C)(Cc1ccccc1)NC(=O)[C@H](CO)NC(=O)[C@](C)(CO)NC(=O)[C@@H](NC(=O)[C@H](CC(=O)O)NC(=O)[C@H](CO)NC(=O)[C@@H](NC(=O)[C@](C)(Cc1ccccc1)NC(=O)[C@H](CO)NC(=O)CNC(=O)[C@H](CCC(=O)O)NC(=O)C(C)(C)NC(=O)[C@@H](N)Cc1c[nH]cn1)[C@@H](C)O)C(C)C)[C@@H](C)CC)C(C)C)C(C)C)C(=O)NCC(=O)NCC(N)=O [compound 189] |  |  | 20.8 pM |  |  |  |  | 144 pM | 114 pM | 173 pM | 30 pM | 12 pM | ≥ 27000 pM | ≥ 27000 pM | ≥ 27000 pM | ≥ 27000 pM
